Molecules are shown by their SMILES. Counter-ions that a name gives are not always drawn. The source made the active and inactive calls. Bounds are passed on as bounds.

Test [1] in a line: A549 cell cytotoxicity, dose response, CellTiter-Glo luminescence, dry powder, set 17 (AID 1117284). It is filed as functional, cell-based.
Test [2] addresses T1, Sentrin-specific protease 8 (Homo sapiens, UniProt Q96LD8).
T1 sequence (Q96LD8 whole entry): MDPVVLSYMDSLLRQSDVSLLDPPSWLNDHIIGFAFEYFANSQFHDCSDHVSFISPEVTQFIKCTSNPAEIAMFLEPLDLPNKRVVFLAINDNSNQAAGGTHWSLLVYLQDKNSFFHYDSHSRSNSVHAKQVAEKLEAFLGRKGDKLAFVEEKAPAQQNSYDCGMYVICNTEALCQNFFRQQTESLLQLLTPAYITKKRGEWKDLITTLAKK
The test is classed as functional.

The target in test [3] is T1, Sentrin-specific protease 8. It is filed as functional. This is another data set of the same source.
Test [4] deals with T2, Histone-lysine N-methyltransferase NSD2 (Homo sapiens, UniProt O96028).
T2 sequence (O96028 whole entry): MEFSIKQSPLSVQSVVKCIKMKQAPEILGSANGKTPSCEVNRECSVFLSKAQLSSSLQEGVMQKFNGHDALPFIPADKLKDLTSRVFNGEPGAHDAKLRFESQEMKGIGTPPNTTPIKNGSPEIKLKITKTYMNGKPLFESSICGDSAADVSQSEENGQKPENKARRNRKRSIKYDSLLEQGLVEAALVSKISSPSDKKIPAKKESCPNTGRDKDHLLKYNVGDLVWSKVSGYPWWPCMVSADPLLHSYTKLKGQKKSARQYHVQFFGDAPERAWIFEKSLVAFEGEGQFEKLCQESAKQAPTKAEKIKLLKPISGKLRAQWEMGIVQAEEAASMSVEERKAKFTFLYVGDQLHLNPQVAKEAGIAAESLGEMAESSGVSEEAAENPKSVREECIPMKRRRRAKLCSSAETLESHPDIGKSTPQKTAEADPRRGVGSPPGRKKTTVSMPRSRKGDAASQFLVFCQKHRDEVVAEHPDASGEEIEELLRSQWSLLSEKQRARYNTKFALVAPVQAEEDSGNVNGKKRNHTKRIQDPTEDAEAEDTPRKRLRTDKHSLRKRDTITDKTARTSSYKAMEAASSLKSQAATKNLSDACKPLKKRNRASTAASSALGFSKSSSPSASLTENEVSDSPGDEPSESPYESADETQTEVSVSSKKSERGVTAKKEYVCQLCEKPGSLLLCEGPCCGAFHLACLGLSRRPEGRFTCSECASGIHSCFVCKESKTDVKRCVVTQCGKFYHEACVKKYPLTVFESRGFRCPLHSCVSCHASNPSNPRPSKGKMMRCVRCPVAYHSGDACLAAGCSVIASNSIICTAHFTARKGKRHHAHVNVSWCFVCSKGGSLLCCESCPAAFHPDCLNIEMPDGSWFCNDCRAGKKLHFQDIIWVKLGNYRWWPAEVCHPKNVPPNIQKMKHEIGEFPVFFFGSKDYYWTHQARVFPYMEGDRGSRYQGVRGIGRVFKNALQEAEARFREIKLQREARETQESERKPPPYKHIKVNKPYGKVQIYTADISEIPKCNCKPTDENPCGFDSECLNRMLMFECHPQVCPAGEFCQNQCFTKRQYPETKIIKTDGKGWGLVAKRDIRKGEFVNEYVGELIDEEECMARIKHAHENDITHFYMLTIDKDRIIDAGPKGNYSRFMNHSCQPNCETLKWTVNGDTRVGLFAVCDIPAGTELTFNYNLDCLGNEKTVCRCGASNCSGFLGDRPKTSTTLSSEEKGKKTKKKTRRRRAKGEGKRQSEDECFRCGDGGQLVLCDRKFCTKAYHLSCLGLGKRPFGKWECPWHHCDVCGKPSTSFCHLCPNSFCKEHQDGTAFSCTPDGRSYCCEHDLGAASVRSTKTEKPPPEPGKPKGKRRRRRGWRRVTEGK
It is filed as biochemical.

Test [5] deals with T3, Tyrosyl-DNA phosphodiesterase 2 (Homo sapiens, UniProt O95551).
T3 sequence (O95551 whole entry): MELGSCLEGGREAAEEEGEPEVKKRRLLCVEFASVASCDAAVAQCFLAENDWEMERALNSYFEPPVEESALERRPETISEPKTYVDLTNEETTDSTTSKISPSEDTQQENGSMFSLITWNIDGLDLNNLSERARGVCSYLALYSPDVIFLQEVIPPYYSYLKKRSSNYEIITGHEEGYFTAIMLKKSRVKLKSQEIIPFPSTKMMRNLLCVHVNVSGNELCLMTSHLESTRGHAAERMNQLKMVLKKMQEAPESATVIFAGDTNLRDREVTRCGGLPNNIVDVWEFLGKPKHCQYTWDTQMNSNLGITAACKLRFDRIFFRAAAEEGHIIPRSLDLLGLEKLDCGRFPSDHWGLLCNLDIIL
In words: human TDP2 enzyme inhibitors, dose response, biochemical, epi absorbance, IC50 (AID 743297).

For test [6], the target named is Glutathione-S-transferase (Schistosoma japonicum, UniProt Q26513). In words: biotin-GST/anti-GST TR-FRET signal inhibitors, dose response, artefact control for Vif-APOBEC3G degradation inhibitor project, biochemical (AID 1117362). It is filed as functional. In general terms: TR-FRET usually uses a lanthanide donor and a delayed reading to cut background.
The next test deals with T4, Protein skinhead-1 (Caenorhabditis elegans, UniProt P34707).
T4 sequence (P34707 whole entry): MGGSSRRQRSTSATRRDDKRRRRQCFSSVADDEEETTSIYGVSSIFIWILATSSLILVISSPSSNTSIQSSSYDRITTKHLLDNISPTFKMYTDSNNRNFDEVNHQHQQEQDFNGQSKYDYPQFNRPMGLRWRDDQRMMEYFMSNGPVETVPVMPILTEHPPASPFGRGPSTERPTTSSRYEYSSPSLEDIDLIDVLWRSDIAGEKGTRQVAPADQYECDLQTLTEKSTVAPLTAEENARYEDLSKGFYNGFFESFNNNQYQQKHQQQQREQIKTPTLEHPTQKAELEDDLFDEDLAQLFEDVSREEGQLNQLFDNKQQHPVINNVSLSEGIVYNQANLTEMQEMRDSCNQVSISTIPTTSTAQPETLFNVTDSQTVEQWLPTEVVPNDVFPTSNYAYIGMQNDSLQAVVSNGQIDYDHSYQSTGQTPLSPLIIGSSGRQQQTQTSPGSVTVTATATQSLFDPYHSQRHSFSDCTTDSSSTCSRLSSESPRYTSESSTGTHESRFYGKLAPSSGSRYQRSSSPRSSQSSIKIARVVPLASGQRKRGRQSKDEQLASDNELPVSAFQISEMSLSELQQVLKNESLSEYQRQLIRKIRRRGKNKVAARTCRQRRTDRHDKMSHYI
It is filed as functional.

A short description of test [7]: Vero cell cytotoxicity, dose response, cytotoxicity control for Vif-APOBEC3G degradation inhibitor project, Vero cells (AID 1117358). It is filed as functional. The following applies: Human immunodeficiency virus 1, Vero.
In test [8] the target is Sphingosine 1-phosphate receptor 2 (Homo sapiens, UniProt O95136). In words: Dose Response Cell Based Assay for Agonists of the S1P2 Receptor. [Related pubchem assays: 729, 736, 843 ]. The test is classed as functional.
The target of another test is T5, Bcl-2-related protein A1 (Mus musculus, UniProt Q07440).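 Further: confirmatory dose–response counterscreen on Bfl-1, used to check hits from a UBC13 polyubiquitin inhibitor campaign.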
T5 sequence (Q07440 whole entry): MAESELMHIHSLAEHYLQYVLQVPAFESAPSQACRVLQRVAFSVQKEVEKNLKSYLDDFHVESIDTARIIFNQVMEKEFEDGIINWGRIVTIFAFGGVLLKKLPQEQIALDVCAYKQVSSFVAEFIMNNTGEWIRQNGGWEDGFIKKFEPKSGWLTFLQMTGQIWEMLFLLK
The test is classed as functional.

Test [9] addresses T6, Ubiquitin-conjugating enzyme E2 N (Homo sapiens, UniProt P61088).
T6 sequence (P61088 whole entry): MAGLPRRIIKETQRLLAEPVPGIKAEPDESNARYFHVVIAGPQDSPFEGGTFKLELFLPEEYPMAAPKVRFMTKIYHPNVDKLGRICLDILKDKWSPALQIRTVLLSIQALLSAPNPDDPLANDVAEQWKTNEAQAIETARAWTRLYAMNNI
It is filed as functional.

In test [10] the target is T6, Ubiquitin-conjugating enzyme E2 N. It is filed as functional. The source holds these as a separate data set.
Test [11] is described as follows: Dose-response inhibition of insulin secretion in a rat insulinoma line at 5 mM glucose (AID 1117331). The test is classed as functional, cell-based. The following applies: INS-1E.
Test [12] is described as follows: HEp-2 cell cytotoxicity, dose response, cytotoxicity control for RSV inhibitor project, HTS (AID 2410). It is filed as functional. Conditions: human respiratory syncytial virus.
The next test deals with NADPH oxidase 1 (Homo sapiens, UniProt Q9Y5S8). In words: Late-stage luminescence-based cell-based dose response assay to identify inhibitors of NADPH oxidase 1 (NOX1): Synthesized analogs. The test is classed as functional.
For a further test, the system named is INS1. In words: beta cell apoptosis inhibitors, cytokine rescue, dose response, luminescence, retest (AID 449756).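 Further: cell death triggered by IL-1 beta plus TNF-alpha plus IFN-gamma mixture; protective hits raise ATP signal compared with cytokine alone wells.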 The test is classed as functional, cell-based. The following applies: Rattus norvegicus.
The nature of test [13]: HeLa 2N DNA content increase, dose response, cell-based, IC50 (AID 1117349). The test is classed as functional.
Test [14] is described as follows: Concentration-dependent survival of SW480 colon cancer line, luminescence detection with CellTiter-Glo, half-maximal inhibitory concentration (AID 1117338). The test is classed as functional.
Test [15] is described as follows: RKO cell viability reduction, dose response, CellTiter-Glo luminescence (AID 1117322). The test is classed as functional. (In ATP-based viability assays light output follows the ATP content of the culture.)
A short description of test [16]: cytotoxicity toward HCT116 cells – cell-based, CellTiter-Glo luminescence, IC50, dose response (AID 1117332). The test is classed as functional. The following applies: HCT-116.
The nature of test [17]: SNU-C1 cell viability reduction, dose response, CellTiter-Glo luminescence (AID 1117323). The test is classed as functional, cell-based.
Test [18] is described as follows: cytotoxicity toward Colo320 cells – cell-based, CellTiter-Glo luminescence, IC50, dose response (AID 1117334). It is filed as functional. Conditions: COLO 320.
Test [19] is described as follows: HeLa 4N DNA content increase, dose response, cell-based, IC50 (AID 1117351). The test is classed as functional.
A short description of test [20]: cytotoxicity toward HT-29 cells – cell-based, CellTiter-Glo luminescence, IC50, dose response (AID 1117330). It is filed as functional.
Test [21] can be described thus: CellTiter-Glo luminescent dose response of DLD-1 viability loss (AID 1117352). It is filed as functional.
A short description of test [22]: HCT116 cell viability decrease, GSK3B pretreatment – CellTiter-Glo, IC50, dose response (AID 1117339). The following applies: HCT-116. It is filed as functional.
Test [23] in a line: cell lysis of Cryptococcus neoformans, alamar blue – dry powder, set 3, mechanism study for C. neoformans antifungal project, dose response (AID 743298). The test is classed as functional, organism-based.

Sequence of NADPH oxidase 1 (Q9Y5S8 whole entry): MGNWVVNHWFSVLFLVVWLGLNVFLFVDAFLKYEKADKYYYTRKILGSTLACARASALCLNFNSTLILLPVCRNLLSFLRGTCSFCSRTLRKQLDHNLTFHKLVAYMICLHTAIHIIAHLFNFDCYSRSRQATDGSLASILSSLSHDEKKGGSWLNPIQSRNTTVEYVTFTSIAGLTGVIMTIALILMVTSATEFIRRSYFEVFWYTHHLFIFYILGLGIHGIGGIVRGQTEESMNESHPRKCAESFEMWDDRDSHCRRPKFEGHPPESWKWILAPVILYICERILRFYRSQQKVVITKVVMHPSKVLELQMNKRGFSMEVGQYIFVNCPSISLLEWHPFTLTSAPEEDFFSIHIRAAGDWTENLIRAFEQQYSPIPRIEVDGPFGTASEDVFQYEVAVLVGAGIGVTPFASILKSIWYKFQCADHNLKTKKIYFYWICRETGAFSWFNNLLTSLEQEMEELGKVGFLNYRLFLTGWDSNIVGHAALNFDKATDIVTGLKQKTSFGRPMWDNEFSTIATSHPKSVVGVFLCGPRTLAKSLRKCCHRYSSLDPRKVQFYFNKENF
Sequence of Sphingosine 1-phosphate receptor 2 (O95136 whole entry): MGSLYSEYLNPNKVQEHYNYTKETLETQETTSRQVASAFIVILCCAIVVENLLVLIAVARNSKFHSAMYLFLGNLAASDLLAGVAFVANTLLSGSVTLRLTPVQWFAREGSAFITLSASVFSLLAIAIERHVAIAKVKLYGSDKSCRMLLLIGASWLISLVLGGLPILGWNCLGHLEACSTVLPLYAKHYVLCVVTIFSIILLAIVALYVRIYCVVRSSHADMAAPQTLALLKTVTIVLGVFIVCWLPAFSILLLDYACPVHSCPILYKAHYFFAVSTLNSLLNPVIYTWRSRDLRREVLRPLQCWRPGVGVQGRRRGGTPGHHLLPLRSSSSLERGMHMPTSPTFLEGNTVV
Sequence of Glutathione-S-transferase (Q26513 whole entry): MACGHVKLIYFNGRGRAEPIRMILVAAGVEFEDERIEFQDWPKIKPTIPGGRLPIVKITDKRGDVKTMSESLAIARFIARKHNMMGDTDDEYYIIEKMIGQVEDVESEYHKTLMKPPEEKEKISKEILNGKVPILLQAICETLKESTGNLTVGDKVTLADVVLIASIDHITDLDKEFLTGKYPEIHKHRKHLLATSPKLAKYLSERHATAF

In the case of `COc1ccc(-c2ccc(CN(C)C[C@@H]3Oc4cc(C#C[C@@H](C)O)ccc4S(=O)(=O)N([C@@H](C)CO)C[C@@H]3C)cc2)cc1`, in [1], the AC50 – broadly, the concentration at which the activity in the assay is half-maximal – is 29.8 µM (active).

With `C[n+]1cccc2cccc([O-])c21`, the IC50 (commonly the midpoint of a concentration-inhibition curve) was 1.82 µM (active) in [2], 1.01 µM (active) in [3], 60 µM (inactive) in [5] and 42.6 µM (active) in test [6]. Further, in test [4], the AC50 was 15.1 µM (active).

As to `CSc1ccc(C2Nc3ccccc3-c3cc(C)nn32)cc1` (configuration not stated), on Protein skinhead-1, the IC50 was > 100 µM (inactive). For the same compound, the CC50 (usually the concentration at which the toxic effect on the cells reaches its halfway point) in test [7] is > 40 µM (active).

`CCC(=O)c1cc2c(C)cc(=O)oc2c(C)c1O`: the EC50 – broadly, the concentration at which the effect is half-maximal – in test [8] was > 50 µM (not active). The IC50 at Bcl-2-related protein A1 is > 20 µM (inactive); in test [9], 10.5 µM (active); in test [10], > 20 µM (inactive).

In the case of `CN(C)CCN1C(=O)c2ccccc2N(C)c2ccccc21` [DIBENZEPIN HYDROCHLORIDE], in test [11], the IC50 is > 33.3 µM (inactive).

As for `Cc1ccc2c(c1)Sc1c(ccc3ccccc13)N2`, the CC50 in [12] is 47.8 µM (active). Besides, the IC50 on NADPH oxidase 1 is 1.47 µM (active). In addition, the AC50 with INS1 is > 260 µM (inactive).

Take `NC(N)=NN=C(/C=C/c1ccc([N+](=O)[O-])o1)/C=C/c1ccc([N+](=O)[O-])o1`: the IC50 was > 10 µM (inactive) in test [13]; 0.0076 µM (active) in test [14]; 0.0128 µM (active) in test [15]; 0.136 µM (active) in test [16]; 1.35 µM (active) in test [17]; 0.003 µM (active) in test [18]. Moreover, the IC50 in [19] is > 10 µM (inactive); in [20], 0.003 µM (active); in test [21] it was > 20 µM (inactive); in test [22], 0.0237 µM (active).

For `Fc1ccc(OCCn2c(=S)[nH]c3ccccc32)cc1`, the AC50 in test [23] is 55.4 µM (active).
